Values after ≈ are worked out from the molar mass of the structure shown.
How the values were obtained:
[1] = tested on: Feline immunodeficiency virus; assay: Concentration required to inhibit feline immunodeficiency virus (FIV) replication in 50% normal cat serum (NCS); type: functional, organism-based
[2] = tested on: Feline immunodeficiency virus; assay: Concentration required to inhibit feline immunodeficiency virus (FIV) replication in normal tissue culture medium; type: functional, organism-based

Compound | IC50 [1] [µg/mL] | IC50 [2] [µg/mL]
Ac-WEDWVGWI-NH2 | 5.21 | 0.15
CC[C@@H](C)[C@@H](NC(C)=O)C(=O)N[C@H](Cc1c[nH]c2ccccc12)C(=O)NCC(=O)N[C@@H](C(=O)N[C@H](Cc1c[nH]c2ccccc12)C(=O)N[C@H](CC(=O)O)C(=O)N[C@H](CCC(=O)O)C(=O)N[C@H](Cc1c[nH]c2ccccc12)C(N)=O)C(C)C | 0.8 (≈ 0.707 µM) | 0.63 (≈ 0.557 µM)

Source: ChEMBL document CHEMBL1145028, “Retroinverso analogue of the antiviral octapeptide C8 inhibits feline immunodeficiency virus in serum” (J Med Chem, 2003)
